Laboratory results published in patent US4517003A, “N-acyl phosphoric triamide urease inhibitors and urease inhibited urea based fertilizer compositions” (Allied Corporation, priority 1983, dated 1985).
Read-outs that look alike come from different tables or passages of the source.

What was measured:
[1] = test system: soil nitrification; assay: Nitrification inhibition efficacy test in soil; details: Cazenovia silt loam pH 7.3, 14 days at 25° C.; for % Inhibition at 40 ug per gram of soil, t14 (Inhibition of Soil Nitrification): diammonium phosphate applied after 14 days (t14); for % Inhibition at 40 ug per gram of soil, t0 (Inhibition of Soil Nitrification): diammonium phosphate applied simultaneously (t0)
Method: Efficacy tests were conducted to evaluate the efficacy of certain representative phosphoric triamide compounds as nitrification inhibitors. All compounds were evaluated in Cazenovia silt loam soil (pH 7.3). The evaluations consisted of applying either simultaneously (to) or after 14 days (t14) a solution of 6.00 mg (300 ug/g soil) of diammonium phosphate in 1 mL of water to triplicate 20 g samples of air dry soil contained in 250 mL square glass bottles that had been treated with a solution of either 0 or 0.800 mg (40 ug/g soil) of the test compound in 5 mL of water. Each bottle was capped with perforated aluminum foil, incubated for 14 days at 25° C. after diammonium phosphate application, and then extracted with 100 mL of 2M potassium chloride containing 0.5 mg (5 mg/L) of phenylmercuric acetate. Each extract was allowed to settle, and an aliquot was frozen and then analyzed for nitrate using an autoanalyzer. The percent inhibition obtained during the incubation was calculated by the formula: [formula] where A is the nitrate recovered from unincubated soil before diammonium phosphate addition; B is nitrate recovered from uninhibited soil; and C is nitrate recovered from inhibited soil.
The compounds selected for use in the composition of this invention are N-(diaminophosphinyl)-2,2,2-trichloroacetamide, N-(diaminophosphinyl)-2,2-dichloroacetamide, and N-(diaminophosphinyl)-2-chloroacetamide.

[2] = test system: soil urease; assay: Urease inhibition efficacy test in soil; assay type: biochemical; details: Cazenovia silt loam, pH 7.2, incubated at 25° C. for three days, triplicate
Method: Efficacy tests were conducted to evaluate the efficacy of certain representative phosphoric triamide compounds as urease inhibitors. The inhibition tests were run in a New York soil (Cazenovia silt loam, pH 7.2). […] The bottle was capped with perforated aluminum foil and incubated at 25° C. for three days prior to extraction with 100 mL of a 2M KCl solution containing 0.5 mg of phenylmercuric acetate. The extracts were then analyzed for remaining urea using an autoanalyzer. Percent inhibition was calculated as [formula] Where A is urea recovered from unincubated sample (urea added to soil and immediately extracted); B is urea recovered from inhibited sample; and C is urea recovered from the control (uninhibited sample).

[3] = target: T1, jack bean urease (Sigma, Type IX) (Canavalia ensiformis, UniProt P07374); assay: Jack bean urease inhibition (modified Bremner procedure, homogeneous solution); assay type: biochemical; details: for inhibition at 0.01 µM: read-out: % Inhibition at Specific Inhibitor Concentrations 10^-8 M
T1 construct: purchased Sigma Type IX
Method: Efficacy tests were also conducted with jack bean urease. The procedure of Bremner (see L. A. Douglas and J. M. Bremner, Soil Biol. Biochem., 3, 859-62 (1970) and references therein) was modified by replacing the soil as the source of urease with commercial purified jack bean urease (Sigma, Type IX). The incubation then proceeds in homogeneous solution.
The prior art compound selected for comparative testing was N-(diaminophosphinyl)-p-chlorobenzamide, and the compounds selected for use in the composition of this invention are N-(diaminophosphinyl)-2,2,2-trichloroacetamide, N-(diaminophosphinyl)-2,2-dichloroacetamide, and N-(diaminophosphinyl)-2-chloroacetamide The test procedure employed was identical to that used in Example VII.

[4] = Solubility in ice-cold water (observation during work-up); assay type: physicochemical
Method: The titled compound was prepared in accordance with the procedure of Example I. Using 2-chloroacetamide (7.02 g, 75 mmol), phosphorus pentachloride (15.6 g, 75 mmol) and formic acid (2.9 mL, […]), were reacted to form 16.0 g of N-(dichlorophosphinyl)-2-chloroacetamide, which was reacted with anhydrous ammonia in ether to form N-(diaminophosphinyl)-2-chloroacetamide.

[5] = Table II, 10^-6 M inhibitor, jack bean urease, read-out: % Inhibition at Specific Inhibitor Concentration 10^-6 M
[6] = Table II, 10^-7 M inhibitor, jack bean urease, read-out: % Inhibition at Specific Inhibitor Concentration 10^-7 M
[7] = Table III (comparison with prior art), 10^-6 M inhibitor, jack bean urease, read-out: % Inhibition at Specific Inhibitor Concentrations 10^-6 M
[8] = Table III (comparison with prior art), 10^-7 M inhibitor, jack bean urease, read-out: % Inhibition at Specific Inhibitor Concentrations 10^-7 M

T1 sequence (P07374 whole entry, looked up): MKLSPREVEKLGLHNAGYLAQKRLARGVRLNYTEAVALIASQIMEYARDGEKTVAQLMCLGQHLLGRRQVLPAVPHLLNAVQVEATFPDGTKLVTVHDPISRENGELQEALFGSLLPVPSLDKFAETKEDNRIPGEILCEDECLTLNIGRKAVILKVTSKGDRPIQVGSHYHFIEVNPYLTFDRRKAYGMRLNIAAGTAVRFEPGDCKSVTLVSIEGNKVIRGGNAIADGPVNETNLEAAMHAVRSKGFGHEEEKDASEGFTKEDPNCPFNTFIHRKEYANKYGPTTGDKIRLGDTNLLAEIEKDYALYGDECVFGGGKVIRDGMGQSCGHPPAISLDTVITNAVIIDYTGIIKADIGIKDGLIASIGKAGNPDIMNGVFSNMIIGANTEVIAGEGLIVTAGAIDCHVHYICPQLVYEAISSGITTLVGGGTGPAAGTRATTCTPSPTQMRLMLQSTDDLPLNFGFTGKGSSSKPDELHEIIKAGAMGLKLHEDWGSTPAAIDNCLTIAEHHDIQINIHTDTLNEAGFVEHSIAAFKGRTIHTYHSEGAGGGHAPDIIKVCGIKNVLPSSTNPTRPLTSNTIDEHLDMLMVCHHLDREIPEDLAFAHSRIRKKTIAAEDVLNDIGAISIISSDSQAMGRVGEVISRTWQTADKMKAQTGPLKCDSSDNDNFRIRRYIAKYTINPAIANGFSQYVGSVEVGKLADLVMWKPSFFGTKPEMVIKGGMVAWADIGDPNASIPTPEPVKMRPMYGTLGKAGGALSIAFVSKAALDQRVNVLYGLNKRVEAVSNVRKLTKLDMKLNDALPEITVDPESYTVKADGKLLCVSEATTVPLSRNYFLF

SMILES	% Inhibition at 40 ug per gram of soil, t14 (Inhibition of Soil Nitrification) [1] [%]	% Inhibition at 40 ug per gram of soil, t0 (Inhibition of Soil Nitrification) [1] [%]	% Inhibition at 40 ug per gram of soil (Inhibition of Soil Urease) [2] [%]	inhibition at 1 µM [3, 5] [%]	inhibition at 0.1 µM [3, 6] [%]	inhibition at 1 µM [3, 7] [%]	inhibition at 0.1 µM [3, 8] [%]	Solubility in water [4]	inhibition at 0.01 µM ([3]; Table III (comparison with prior art), 10^-8 M inhibitor, jack bean urease) [%]	inhibition at 1 µM ([3]; read-out: % Inhibition at Specific Inhibitor Concentrations 10^-6 M) [%]	inhibition at 0.1 µM ([3]; read-out: % Inhibition at Specific Inhibitor Concentrations 10^-7 M) [%]	inhibition at 0.01 µM [3] [%]
COc1ccc(C(=O)NP(N)(N)=O)cc1 [N-(Diaminophosphinyl)-4-methoxybenzamide, N-(diaminophosphinyl)-4-methoxybenzamide, reference compound]	13	4	–	–	–	–	–	–	–	–	–	–
NP(N)(=O)NC(=O)C(Cl)Cl [Example I, N-(Diaminophosphinyl)-2,2-dichloroacetamide]	9	18	73	100	80 to 100	100	100	–	–	–	–	–
N#CCC(=O)NP(N)(N)=O [Example V, N-(Diaminophosphinyl)-2-Cyanoacetamide]	–	–	–	56	–	–	–	–	–	–	–	–
NP(N)(=O)NC(=O)C(F)(F)F [IV, N-(Diaminophosphinyl)-2,2,2-trifluoroacetamide]	–	–	52	100	22	–	–	–	–	–	–	–
NP(N)(=O)NC(=O)CCl [Example II, N-(Diaminophosphinyl)-2-chloroacetamide]	0	2	83	100	81	100	50	very soluble even in ice-cold water	–	–	–	–
NP(N)(=O)NC(=O)C(Cl)(Cl)Cl [Example III, N-(Diaminophosphinyl)-2,2,2-trichloroacetamide]	3	47	64	93 to 100	70	–	78	–	13	–	–	–
NP(N)(=O)NC(=O)c1ccc(Cl)cc1 [N-(Diaminophosphinyl)-p-chlorobenzamide, N-(diaminophosphinyl)-p-chlorobenzamide, reference compound]	–	–	–	–	–	–	–	–	–	83	20	14
